Assay [1] deals with NOD mouse. Kind of assay: Rate of type 1 diabetes and final blood glucose in treated female NOD/ShiLtJ mice. It is filed as in vivo. The note with it: for rate of diabetes: EGCG IP in saline from age 3-5 days. Here is the method:
Mouse care: NOD/ShiLtJ mice were from The Jackson Laboratory (Bar Harbor, ME, USA). Mice were housed under standard conditions (20-24° C., humidity 30-70%, lighting regimen 12 h light/12 h dark) in the University of Wisconsin Biomedical Research Model Service that is a specific pathogen free level 1 facility. […] Mice had access to acidified water or water containing a chemical and/or green tea ad libitum. All procedures were approved by the Research Animal Resources and Compliance veterinary care authority of the University of Wisconsin, Madison.
Mouse treatments: Mice were given chemicals by intraperitoneal injection and/or by gavage and/or in drinking water. Water-soluble chemicals were administered in a solution of sodium chloride adjusted to have a final osmolality of 0.5-0.9%. Lipid soluble chemicals were dissolved in olive oil, peanut oil, corn oil, Mazola® oil or canola oil.
Starting at age 2 to 5 days mice were given injections on every third or fourth day for 2 to 4 weeks (usually 2 to 2.5 weeks) for the first 4 or 6 injections, and thereafter twice per week on Mondays and Thursdays until up to age 100 days. In some instances, pregnant and nursing mice were given chemicals in drinking water starting at about the middle or late pregnancy continuing during nursing and also continuing for various lengths of time to the offspring with or without additional intraperitoneal injections of chemicals. In other instances, chemicals were delivered by intraperitoneal injection into pregnant mice and continued after delivery into the mouse pups. Chemicals, for example EGCG, were also delivered in drinking water starting before birth to the pregnant mouse mother and/or continuing and/or starting ad libitum to the mice after birth usually until at least 100 days of age or throughout life.
Chemicals given in distilled drinking water were green tea (as a source of EGCG and other catechins) (Lipton® 100% Natural Green Tea). […] The tea water was given alone and also in combination with acetaminophen 2 g/l in the same water.
In most cases nondiabetic mice were euthanized at 40-41 weeks of age. Statistical significances of the frequencies of diabetes in the mice receiving test treatments were compared to the rates of diabetes in mice receiving control treatments and were calculated with the Chi square test and with the Chi square test with Yate's correction.
In most of the studies, control solutions and the other treatments were administered to the mice until they were 100 days old. Mice without diabetes were euthanized at 40-41 weeks of age. Diabetic mice were euthanized when their blood glucose levels reached a level that met the criteria for diabetes.
Administration of water-soluble chemicals serving as controls to NOD mice: Control solutions were the vehicles in which chemicals were dissolved. Control solutions were usually administered to mouse litters from the same shipments as the litters receiving test chemicals and/or litters from the same parents as the litters receiving test chemicals and were administered during the same month and year as treatments to the litters receiving test treatments. Statistical probabilities between the rates of diabetes in the litters receiving test treatments were compared to litters simultaneously receiving control treatments.

For assay [2], the system named is NOD mouse. The note with it: Fu et al.: 1 mM EGCG in drinking water, given after age 5 weeks; 12 mice; 32 weeks of age; cited from earlier work.
Where [3] appears, read: 100 μmol/kg IP in saline, age 34 weeks.
Setting [4] is: 50 μmol/kg IP in saline from age 3-5 days until 59-63 or 93-95 days, age 41-44 weeks.
The mark [5] stands for this setting: 1 mM in drinking water, oral, from 1-4 days after birth.
[6] abbreviates: 60 day treatment (stopped at age 59-60 days), 50 μmol/kg IP in saline, age 40 weeks.
[7] abbreviates: IP 50 μmol/kg in saline til wean (21 days), then gavage 100 μmol/kg until 97-98 days.
The mark [8] stands for this setting: started post wean (21 days) until 99 days, 50 μmol/kg IP in ¾ saline.
Where [9] appears, read: hydroxytyrosol alone, 325 μmol/kg first 5 weeks, 650 thereafter, IP in ¾ saline.
[10] abbreviates: menaquinone-4 200 μmol/kg IP in olive oil, age 40 weeks.
Setting [11] is: menaquinone-4 200 μmol/kg IP in peanut oil.
[12] abbreviates: pure oleocanthal (oil) 50 μmol/kg, no carrier, IP til wean, then gavage.
Where [13] appears, read: 2000-3500 μmol/kg IP in olive oil, age 40 weeks.
Where [14] appears, read: 2000-3500 μmol/kg IP in peanut oil.
Setting [15] is: started post wean, 3100-4000 μmol/kg IP in olive oil.
The mark [16] stands for this setting: quercetin 200 μmol/kg IP in olive oil, age 40 weeks.
Where [17] appears, read: quercetin 200 μmol/kg IP in peanut oil.
Where [18] appears, read: 1500 μmol/kg in olive oil, IP til wean (21 days), then gavage until 98 days, age 40 weeks.
Where [19] appears, read: 2000 μmol/kg IP in olive oil, age 40 weeks.
[20] abbreviates: 200 μmol/kg in ¾ saline, IP til wean (21 days), then gavage until 55-62 days, age 35 weeks.
Setting [21] is: 200 μmol/kg IP in saline, age 40 weeks.
Setting [22] is: 20 ug once per week for first 3 weeks, then 40 μg once per week until 100-110 days, IP in 5% DMSO/95% saline, age 40 weeks.
Setting [23] is: 40 μg twice/week for two weeks then once per week until 14 weeks old, IP in 5% DMSO/95% saline.
Where [24] appears, read: 20 ug, then 40 μg after 3 weeks, IP in 5% DMSO/95% saline.

Ends that are not written are not given here. * marks the point of attachment. Cam = NC(=O)C*

Consider `O=C(O)/C=C/c1ccc(O)c(O)c1` [Caffeic Acid, reference compound], for which, in the assay with NOD mouse [1] (setting [3]), the “Diabetes (%)” value was determined as 65%, the “Final Blood Glucose (mean ± SE) diabetic” value came to 611 ± 32 mg glucose/dl and the “Final Blood Glucose (mean ± SE) non-diabetic” value is recorded as 178 ± 15 mg glucose/dl.
As to `O=C(O[C@@H]1Cc2c(O)cc(O)cc2O[C@@H]1c1cc(O)c(O)c(O)c1)c1cc(O)c(O)c(O)c1` [EGCG, (2R,3R)-5,7-Dihydroxy-2-(3,4,5-trihydroxyphenyl)-3,4-dihydro-2H-1-benzopyran-3-yl 3,4,5-trihydroxybenzoate], the “mice that had diabetes” value in the assay with NOD mouse [2] is on record as 25%. Moreover, the “Diabetes (%)” value is 35% with NOD mouse [1] (setting [4]); 40% in the assay with NOD mouse [1] (setting [5]); 33% with NOD mouse [1] (setting [6]); 50% in the assay with NOD mouse [1] (setting [7]); 29% in the assay with NOD mouse [1] (setting [8]); 25% in the assay with NOD mouse [1] (started post wean, 250 μmol/kg by gavage in water, mice 24-27 weeks old, study ongoing). Besides, the “Final Blood Glucose (mean ± SE) diabetic” value is listed as 685 ± 34 mg glucose/dl in the assay with NOD mouse [1] (setting [4]); 708 ± 24 mg glucose/dl in the assay with NOD mouse [1] (setting [5]); 663 ± 57 mg glucose/dl in the assay with NOD mouse [1] (setting [6]); 624 ± 33 mg glucose/dl with NOD mouse [1] (setting [7]); 605 ± 59 mg glucose/dl with NOD mouse [1] (setting [8]). Further, the “Final Blood Glucose (mean ± SE) non-diabetic” value stood at 159 ± 5 mg glucose/dl in the assay on NOD mouse [1] (setting [4]); 172 ± 4 mg glucose/dl in the assay with NOD mouse [1] (setting [5]); 145 ± 4 mg glucose/dl with NOD mouse [1] (setting [6]); 200 ± 12 mg glucose/dl in the assay on NOD mouse [1] (setting [7]); 166 ± 4 mg glucose/dl in the assay on NOD mouse [1] (setting [8]). In addition, the rate of diabetes in the assay with NOD mouse [1] (treatment ending after 59-63 days, age 41-44 weeks) is given as 38%; in the assay on NOD mouse [1] (treatment ending after 93-95 days, age 41-44 weeks) it was 31%.
As for `OCCc1ccc(O)c(O)c1` [Hydroxytyrosol, 4-(2-hydroxyethyl)benzene-1,2-diol], in the assay on NOD mouse [1] (setting [9]), the “Diabetes (%)” value stood at 59%, the “Final Blood Glucose (mean ± SE) diabetic” value was found to be 672 ± 24 mg glucose/dl and the “Final Blood Glucose (mean ± SE) non-diabetic” value was 173 ± 12 mg glucose/dl.
In the case of `CC(C)=CCC/C(C)=C/CC/C(C)=C/CC/C(C)=C\CC1=C(C)C(=O)c2ccccc2C1=O` [Menaquinone-4, 3-methyl-2-[(2Z,6E,10E)-3,7,11,15-tetramethylhexadeca-2,6,10,14-tetraenyl]naphthalene-1,4-dione, reference compound], the “Diabetes (%)” value worked out at 25% in the assay with NOD mouse [1] (200 μmol/kg in olive oil, IP til wean (21 days), then gavage until 98 days, mice 24-30 weeks old, study ongoing); 32% in the assay with NOD mouse [1] (30 day treatment, 200 μmol/kg IP in olive oil, mice 20-40 weeks old, study ongoing); 4% in the assay on NOD mouse [1] (60 day treatment, 200 μmol/kg IP in olive oil, mice 34-36 weeks old, study ongoing); 0% with NOD mouse [1] (setting [10]); 50% with NOD mouse [1] (setting [11]). Also, the “Final Blood Glucose (mean ± SE) non-diabetic” value with NOD mouse [1] (setting [10]) was 172 ± 15 mg glucose/dl; with NOD mouse [1] (setting [11]), 164 ± 9 mg glucose/dl. In addition, in the assay with NOD mouse [1] (setting [11]), the “Final Blood Glucose (mean ± SE) diabetic” value worked out at 706 ± 25 mg glucose/dl.
Turning to `C/C=C(/C=O)[C@@H](CC=O)CC(=O)OCCc1ccc(O)cc1` [Oleocanthal (oil)], in the assay on NOD mouse [1] (setting [12]), the “Diabetes (%)” value was 35%, the “Final Blood Glucose (mean ± SE) diabetic” value was 560 ± 61 mg glucose/dl and the “Final Blood Glucose (mean ± SE) non-diabetic” value worked out at 178 ± 7 mg glucose/dl.
For the compound `CC1=C(C/C=C(\C)CCC[C@H](C)CCC[C@H](C)CCCC(C)C)C(=O)c2ccccc2C1=O` [Phylloquinone, reference compound], the “Diabetes (%)” value is listed as 38% with NOD mouse [1] (110 μmol/kg IP in olive oil), 21% in the assay on NOD mouse [1] (setting [13]), 40% with NOD mouse [1] (setting [14]) and 36% in the assay with NOD mouse [1] (setting [15]). Also, the “Final Blood Glucose (mean ± SE) diabetic” value amounted to 648 ± 37 mg glucose/dl in the assay on NOD mouse [1] (110 μmol/kg IP in olive oil), 647 ± 27 mg glucose/dl in the assay on NOD mouse [1] (setting [13]), 646 ± 40 mg glucose/dl with NOD mouse [1] (setting [14]) and 677 ± 20 mg glucose/dl in the assay on NOD mouse [1] (setting [15]). Besides, the “Final Blood Glucose (mean ± SE) non-diabetic” value in the assay with NOD mouse [1] (110 μmol/kg IP in olive oil) stood at 174 ± 5 mg glucose/dl; with NOD mouse [1] (setting [13]), 163 ± 5 mg glucose/dl; in the assay on NOD mouse [1] (setting [14]), 167 ± 10 mg glucose/dl; in the assay on NOD mouse [1] (setting [15]), 156 ± 6 mg glucose/dl.
As to `O=c1c(O)c(-c2ccc(O)c(O)c2)oc2cc(O)cc(O)c12` [Quercetin], in the assay with NOD mouse [1] (setting [16]), the “Diabetes (%)” value is recorded as 26%, the “Final Blood Glucose (mean ± SE) diabetic” value is reported as 610 ± 56 mg glucose/dl and the “Final Blood Glucose (mean ± SE) non-diabetic” value came to 178 ± 7 mg glucose/dl. In the assay with NOD mouse [1] (setting [17]), the “Diabetes (%)” value was found to be 47%, the “Final Blood Glucose (mean ± SE) diabetic” value stood at 651 ± 25 mg glucose/dl and the “Final Blood Glucose (mean ± SE) non-diabetic” value was found to be 171 ± 11 mg glucose/dl.
For `CC1=C(C=O)C(C)(C)CC=C1` [Safranal, 2,6,6-Trimethylcyclohexa-1,3-diene-1-carbaldehyde], in the assay on NOD mouse [1] (setting [18]), the “Diabetes (%)” value turned out to be 36%, the “Final Blood Glucose (mean ± SE) diabetic” value is recorded as 595 ± 36 mg glucose/dl and the “Final Blood Glucose (mean ± SE) non-diabetic” value is given as 172 ± 8 mg glucose/dl. Further, in the assay on NOD mouse [1] (setting [19]), the “Diabetes (%)” value was found to be 32%, the “Final Blood Glucose (mean ± SE) diabetic” value is 606 ± 60 mg glucose/dl and the “Final Blood Glucose (mean ± SE) non-diabetic” value is 159 ± 5 mg glucose/dl.
`C[S+]([O-])CCCCN=C=S` (stereo not drawn) [Sulforaphane, 1-Isothiocyanato-4-(methanesulfinyl)butane]: in the assay on NOD mouse [1] (setting [20]), the “Diabetes (%)” value is given as 42%, the “Final Blood Glucose (mean ± SE) diabetic” value worked out at 619 ± 37 mg glucose/dl and the “Final Blood Glucose (mean ± SE) non-diabetic” value is on record as 154 ± 7 mg glucose/dl.
Consider `CC(S)C(=O)NCC(=O)O` (stereo not drawn) [Tiopronin, reference compound], for which, in the assay with NOD mouse [1] (setting [21]), the “Diabetes (%)” value came to 74%, the “Final Blood Glucose (mean ± SE) diabetic” value turned out to be 685 ± 19 mg glucose/dl and the “Final Blood Glucose (mean ± SE) non-diabetic” value came out at 175 ± 12 mg glucose/dl.
For the compound “SHLVEALYLVCGEEG (SHLVEALYLVC(Cam)GEEG) [Ins B9-23 19CAM22R-E, insulin B chain 9-23 mimotope peptide treated with iodoacetamide to carboxyamidomethylate the cysteine residue at position 19]”, in the assay on NOD mouse [1] (setting [22]), the “Diabetes (%)” value came out at 17%, the “Final Blood Glucose (mean ± SE) diabetic” value was found to be 681 ± 82 mg glucose/dl and the “Final Blood Glucose (mean ± SE) non-diabetic” value was found to be 159 ± 6 mg glucose/dl.
As for “VEALYLVCEGEEG (VEALYLVC(Cam)EGEEG) [Ins B12-23 19CAM22R-E, insulin B12-23 mimotope peptide treated with iodoacetamide to carboxyamidomethylate the cysteine residue]”, in the assay on NOD mouse [1] (setting [23]), the “Diabetes (%)” value is on record as 54%, the “Final Blood Glucose (mean ± SE) diabetic” value was 569 ± 70 mg glucose/dl and the “Final Blood Glucose (mean ± SE) non-diabetic” value worked out at 166 ± 7 mg glucose/dl.
With “VEALYLVCGERG (VEALYLVC(Cam)GERG) [Ins B12-23 19CAM]”, in the assay on NOD mouse [1] (setting [24]), the “Diabetes (%)” value turned out to be 47%, the “Final Blood Glucose (mean ± SE) diabetic” value is 679 ± 32 mg glucose/dl and the “Final Blood Glucose (mean ± SE) non-diabetic” value is reported as 160 ± 6 mg glucose/dl.

(Values after patent US20260053902A1, “COMPOSITIONS AND METHODS FOR REDUCING THE RATE OF TYPE 1 DIABETES” (Wisconsin Alumni Research Foundation, priority 2023, published 2026).)
